Where a name gives a salt, the structure may show the parent alone. Blank lines part the entries; values can stand above or below the compound they belong to.
Key:
[1] = Stability of topical gel formulations (assay and degradant generation at 25° C./60% RH and 40° C./75% RH); assay type: physicochemical; details: Formulation 1, 5% w/w API; accelerated conditions 40° C./75% RH
Description: An exemplary formulation is provided below.
Multiple dipivefrin gel formulations were evaluated. Formulations 1-3: API loading ranging from 2.5-10% w/w. Formulation 4: Reduced ethyl alcohol (50%) of original loading. Formulation 5: Reduced diethylene glycol monoethyl ether (50%) of original loading. Formulation 6: Reduced propylene glycol (50%) of original loading.
The stability of the topical formulation was tested in two assays. Formulation 1 was evaluated with API loading of 5% w/w. Assay trends are directed downward under accelerated conditions (40° C./75% RH)
Stability trends for a claimed topical formulation (AQEP-09) was evaluated by measuring degradant generation. Formulation 1 was tested with API loading of 5% (% w/w).
The following formulations are exemplary.

[2] = tested on: NK cells; test: NK activation assay, CD25+CD69+ NK cells by flow cytometry; assay type: cell-based, human; details: for % inactivation relative to vehicle: human NK % CD25+CD69+ cells; for suppression of activation of NK cells, Epinephrine and Dipivefrin combined for analysis: exceeding IC50 at 70, 140 and 280 nM
Description: IC50 is a measurement of how much of a drug is needed to inhibit a biological process by half.
Peripheral blood mononuclear cells (PBMC) were isolated over a density gradient from six donor buffy coats and CD56+NK were separated using magnetic selection. Purity of sorted NIK cells was assessed by flow cytometry using CD56 as a marker of NK cells.
Following magnetic isolation, NK cells were seeded at 5×10^5 NK cells per well in a 48 well plate alongside NK activation beads (prepared as per manufacturer's protocol) at a 1:1 bead to cell ratio, IL-2 (final concentration 500 IU/ml) and either prodrug/epinephrine at 5 different doses (see section 3.6 below for further details), cortisol/dexamethasone (positive controls) or vehicle (media only). NK cells were cultured with the NK activation beads for two days at 37° C. in the presence of 5% CO2. After two days, supernatants were collected from each condition for future TR-FRET analysis (AQV-24-001_AM-1 only, see below) and the remaining cells from each condition were assessed for expression of surface markers CD25, CD69 and for cell viability using eBioscience™ Fixable Viability Dye. Samples were then treated with eBioscience Intracellular Fixation & Permeabilization Buffer Set to allow staining of intracellular granzyme B. Marker expression was determined by flow cytometry and appropriate “Fluorescence-Minus-One controls” controls were used. Flow cytometry data was analysed using FlowJo analysis software and data was graphed using Graph Pad Prism.
The study was performed in: 3 donors Each experimental condition was tested in: singlicate. For Flow cytometry, viability was measured and cells were phenotyped for NK cell activation (CD25, CD69, granzyme B). Raw and analysed data are provided.
Each experimental condition was tested in: singlicate. For Flow cytometry, viability was measured and cells were phenotyped for NK cell activation (CD25, CD69, granzyme B). Raw and analysed data are provided. Supernatants were harvested in triplicate per condition and stored until further analysis of IFNγ content by TR-FRET. Data was analysed and graphed. Raw and analysed data are provided. […]

[3] = Ex vivo permeation and flux of epinephrine prodrug topical gels through porcine ear tissue; assay type: in vitro ADME
Description: Both in vitro and ex vivo permeation was measured for the following formulation. […]
Exemplary formulations were evaluated including Formulations 1-3, with API loading from 2.5-10% w/w.
(§1) The claimed topical compositions were tested for permeation using both porcine ear and buccal tissue.
(§2) The tested tissues were Porcine Ear vs. Buccal Tissue through 24 hours.

[4] = tested on: IL-1b, IL-10; details: cited from earlier work
[5] = parameters: species or system Sinclair Nanopigs; details: in vivo
Description: A study was conducted to evaluate the systemic pharmacokinetic characteristics of Dipivefrin Topical Gel when administered once by topical application to intact, abraded, and wounded skin of Sinclair Nanopigs™. The study design was as follows. Animals were food fasted for at least 8 hours. Animals were monitored until fully recovered. Anesthesia procedures were documented and retained in the study data. The dose formulations were administered to appropriate animals by topical application on the dorsal surface (Dose Site #1) once on Day 1. The dose site was and/or shaved and marked at least one day prior to Day 1. At least the four corners of the dose sites will be marked with indelible ink based on the appropriate dose area. At least the four corners of the tape stripping area were marked with indelible ink for Group 2 and 3 animals. The site for Group 2 and 3 animals was gently abraded via tape stripping (conducted 50 times). All animals will have a uniform topical application using a gloved hand and/or spatula to rub the entire dose amount throughout the total dose area (for 1 minute). Topical application to the dose area for Group 4 animals will include application of the dose amount over the created wounds. If an animal is observed to have test material remaining following the application time, the observation will be documented. Dose formulations will be allowed to equilibrate at ambient temperature for at least 15 minutes prior to and continuously throughout dose administration Prior to dermal (topical) application on Day 1, the dose site for Group 1 to 3 animals were wiped clean with water-moistened gauze or paper towels then wiped dry with dry gauze or paper towels. Following washing and drying, […]. On Day 1, Group 4 animals: The animal backs were prepared for wound creation by performing a surgical scrub. Two (2) wounds were created on the dorsal surface of each Group 4 animal within a 7×7 cm area using an 8 mm punch biopsy. Steps were taken to ensure the area designated for wound creation is within the total dose area (8×8 cm). […]

[6] = Ex vivo permeation of ondansetron formulation through dermatomed porcine ear (tissue thickness / tissue type); assay type: in vitro ADME
Description: Referring to FIG. 2A (through 6 hour timepoint) and FIG. 2B (through 24 hour timepoint), dermatome sectioning of the porcine ear was conducted to sample membranes of varying thickness that both capture the complete epidermis and a varying thickness of the dermis. Dermatome sectioning completed at 200 μm, 300 μm, and 400 μm to provide membranes of a varying total thickness.
As porcine tissue varies with regard to stratum corneum and epidermal thickness as a function of sampling location, multiple sampling locations have been selected for comparison. Dermatome sectioning of multiple porcine tissue samples at a constant thickness. Dermatome sectioning completed at 400 μm. Tissue types evaluated included porcine ear, shoulder, rump, and belly locations
Referring to FIG. 3A (through 400 minutes) and FIG. 3B (through 1500 minutes), the average amount of ondansetron permeated (in ug) is measured as a function of time. The permeation is measured through varying intact porcine ear tissue types at constant thickness (400 um total thickness). […] Given the comparably low standard deviation and the lack of ondansetron detected in the receiver media at t=0 minutes compared to other tissue types, this tissue type has been selected for continued ex-vivo permeation method development.

[7] = human, in vivo
Description: A two-part clinical study was conducted for alopecia areata (AA) patients. AA is an autoimmune disease leading to hair loss on the scalp, face, and in more severe cases, other body areas. The mechanisms leading to AA are multifactorial, including an autoimmune response that results in the loss of hair follicle immune privilege. The patient will be given treatment based on disease severity (>50% involvement—JAK inhibitors; <50% involvement—corticosteroids).
In Part 1, single ascending doses of a single formulation of AQST-108 were given. […] The 1.0% AQST-108 strength was down-selected to Part 2.
In Part 2, a single dose of 1 of 3 formulations of 1.0% of AQST-108 was given.

[8] = male, Wistar Han, rat, in vivo
Description: A study was conducted to evaluate the pharmacokinetics of the claimed composition in a rat model. The purpose of this study was to enable selection of dosing regimen to be used on Passive Cutaneous Anaphylaxis (PCA) model in mammalian subjects. In this study, 15 male rats were studied to model the effects of the claimed composition on passive cutaneous anaphylaxis with a topical route of exposure. […] The Wistar Han rat was chosen as the animal model for this study as it is an appropriate model to study the effects of drug candidates on passive cutaneous anaphylaxis, based on available literature.
In this study, the pharmaceutical composition was applied on the dorsal side of both ears for groups 2-5 and only on the left ear of group 1 using a gloved finger until absorbed. The topical gel was applied as an even layer with no rubbing required.
The dark gray bar represents concentration in ng/g after 30 minutes of exposure for both 1% (low dose) and 2.5% (high dose) compositions. The light gray bar represents concentration in ng/g after 60 minutes of exposure for both 1% (low dose) and 2.5% (high dose) compositions.

[9] = Ex vivo permeation and flux of dipivefrin topical gel through buccal tissue; assay type: in vitro ADME, porcine; details: through 24 hours
Description: as §1, §2

[10] = Non-clinical pharmacokinetic study of 2.5% topical gel in minipigs; assay type: in vivo
Description: A non-clinical pharmacokinetic study was also conducted in minipigs. In this study, a 2.5% topical gel was applied at 30 mg/cm2 in 7, 10 and 12% body surface area (BSA) coverage respectively, and data was collected over 6 hours.

[11] = In vitro permeation and flux of dipivefrin topical gel through CelluSep; assay type: in vitro ADME; details: 5.0% dipivefrin (w/w) topical gel
Description: Both in vitro and ex vivo permeation was measured for the following formulation. […] Rapid release from the topical gel matrix was observed. Referring to FIG. 4A, the amount permeated (in ug) was measured as a function of time (in minutes). […] The flux (ug/cm^2*min) was measured as a function of time (minutes).

[12] = tested on: TNFα, IL-10; details: cited from earlier work
[13] = tested on: Granzyme B; details: donors 4-6, from 100 μg/ml, versus vehicle control
Description: NK cells were cultured with the NK activation beads for two days at 37° C. in the presence of 5% CO2. […] Samples were then treated with eBioscience Intracellular Fixation & Permeabilization Buffer Set to allow staining of intracellular granzyme B. Marker expression was determined by flow cytometry and appropriate “Fluorescence-Minus-One controls” controls were used. Flow cytometry data was analysed using FlowJo analysis software and data was graphed using Graph Pad Prism.
CD56+ cells were isolated from three donor buffy coats by magnetic separation. […] Next, the effect of compound addition at different timepoints and doses, following either optimal or suboptimal NK activation was determined by measuring expression of the activation markers CD25, CD69 and Granzyme B on NK cells. […] Treatment was administered at 0, 6, 24 and 30 hours. The controls were 200 nM Cortisol and 500 nM Deuruxolitinib (Jak inhibitor).

[14] = tissue thickness 200 μm, donor cell empty
[15] = tissue thickness 400 μm, donor cell filled

degradant formation trends (epinephrine, PD-15, RRT 1.80) [1]: directed upward
Compound: CNCC(O)c1ccc(OC(=O)C(C)C)c(OC(=O)C(C)C)c1 (stereo not drawn) [AQEP-09, Dibutepinephrine]

Compound: C[C@]12CCC(=O)C=C1CC[C@@H]1[C@@H]2[C@@H](O)C[C@@]2(C)[C@H]1CC[C@]2(O)C(=O)CO [Cortisol]
% inactivation relative to vehicle ([2]; 200 nM): 39%

Compound: C[C@@H]1C[C@H]2[C@@H]3CCC4=CC(=O)C=C[C@]4(C)[C@@]3(F)[C@@H](O)C[C@]2(C)[C@@]1(O)C(=O)CO [Dexamethasone]
% inactivation relative to vehicle ([2]; 200 nM): 22%
% inactivation relative to vehicle ([2]; 1 μM): 19%

ex vivo permeation through porcine ear tissue ([3]; topical gel containing 0.5% or 5.0% (w/w) dipivefrin HCl, 400 μm tissue): Significant permeation
Compound: CNCC(O)c1ccc(OC(=O)C(C)(C)C)c(OC(=O)C(C)(C)C)c1 (stereo not drawn) [Dipivefrin HCl]

Compound: CNC[C@H](O)c1ccc(O)c(O)c1 [Epinephrine]
CD25+CD69+ NK cells compared to vehicle ([2]; 5 doses, 6 donors (donor 1 removed)): consistent reduction
% inactivation relative to vehicle ([2]; 500 nM): 65%
% inactivation relative to vehicle ([2]; 1000 nM): 61%
% inactivation relative to vehicle ([2]; 2500 nM): 51%
suppression of activation of NK cells, Epinephrine and Dipivefrin combined for analysis ([2]; range of concentrations): effective suppression
serum concentrations of IL-10 ([4]; humans): increases serum concentrations
serum concentrations of IL-1b ([4]; septic patients following treatment): decreased serum concentrations of IL-1b
wounded to intact skin ratio for Cmax, epinephrine plasma ([5]; Sinclair Nanopig, pig, topical or ocular): 3.90
PK parameters in plasma, intact skin versus abraded skin [5]: no significant difference

Amount Ondansetron Permeated, 6 hours [6, 14]: 21.2 (±2.5) μg
Amount Ondansetron Permeated, 24 hours [6, 14]: 542.4 (±74.3) μg
Amount Ondansetron Permeated, 6 hours [6, 15]: 5.7 (±3.9) μg
Amount Ondansetron Permeated, 24 hours [6, 15]: 43.8 (±19.4) μg
Compound: Cc1nccn1CC1CCc2c(c3ccccc3n2C)C1=O (stereo not drawn) [Ondansetron]

AQST-108 plasma concentrations [7]: No AQST-108 plasma concentrations
systemic epinephrine concentrations [7]: within normal physiologic range
duration of epinephrine exposure [8]: > 1 h
permeation through buccal tissue versus porcine ear [9]: reduced dipivefrin permeation
duration of high exposure in dermis and epidermis ([10]; 30 mg/cm2, 7, 10 and 12% BSA): more than 6 hours
systemic exposure ([10]; high body surface area coverage): no systemic exposure
in vitro release from the topical gel matrix (permeation and flux) [11]: Rapid release
PK parameters in plasma, intact skin versus abraded skin [5]: no significant difference
Compound: CNC[C@H](O)c1ccc(OC(=O)C(C)(C)C)c(OC(=O)C(C)(C)C)c1 [dipivefrin]
serious adverse events (SAE) or topical adverse events (AE) [7]: No serious adverse events
permeation as a function of API loading ([3]; topical gel, 2.5% to 10% API loading, 24 hours): Dose proportional increases in permeation
% inactivation relative to vehicle ([2]; 500 nM): 67%
% inactivation relative to vehicle ([2]; 1000 nM): 68%
% inactivation relative to vehicle ([2]; 2500 nM): 66%
suppression of activation of NK cells, Epinephrine and Dipivefrin combined for analysis ([2]; range of concentrations): effective suppression
modulation of NK cell activity ([2]; range of concentrations, exceeding IC50 at 140 and 280 nM): effectively deactivated NK cells

Compound: NC[C@H](O)c1ccc(O)c(O)c1 [norepinephrine]
IL-10 secretion [12]: inducing rapid IL-10 secretion
TNFα [12]: potently suppresses

Compound: dipivefrin
Median Fluorescence Intensity (MFI) of Granzyme B [13]: decreasing to some extent
reduction of NK cell activation as compared to control ([2]; doses up to 5 ng/mL, comparable to 20 nM Cortisol): about 12%
reduction in CD25+CD69+ NK cells compared to vehicle control ([2]; higher doses, donors 4-6): 5-12%
reduction in CD25+CD69+ NK cells compared to vehicle control ([2]; lower doses, donors 2-3): 7-12%
